In US20260042764A1, “COMPOSITIONS AND METHODS FOR INHIBITION OF KRAS” (TheRas, Inc., priority 2022, published 2026):

Key:
[1] = tested on: GP2d cells (KRAS G12D); experiment: Cell-based pERK HTRF assay in GP2d cell (Biological Example 2); details: GP2d, GP2d (KRAS G12D) cells
Procedure, shortened: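 HTRF read-out of pERK (excitation 320 nm, emission 615 nm) after lysates sat 4–24 h at room temperature with Eu cryptate and d2 antibodies.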

[2] = target: T1, Avi-KRAS G12D (2-169) GTP/RAF1 RBD-3xFLAG (51-131) (Homo sapiens, UniProt P01116, G12D); experiment: Raf1-KRAS G12D-GTP disruption HTRF assay (Biological Example 3); assay type: binding; details: KRAS G12D, GTP-loaded
T1 construct: Avi-KRAS G12D (2-169)
Experimental: (§1) Biological Example 3: Disrupting RAS-Effector Binding HTRF Assay
(§2) A protein:protein interaction (PPI) Homogeneous Time Resolved Fluorescence (HTRF) assay was used to determine the effectiveness of compounds in disrupting KRAS protein and effector (RAF1) binding.
(§3) The HTRF assay used the following reagents and proteins: (i) 50 nM Avi-KRAS G12D (2-169) GTP/RAF1 RBD-3xFLAG (51-131): (ii) 50 nM Avi-KRAS G12C (2-169) GTP/RAF1 RBD-3xFLAG (51-131): (iii) 50 nM Avi-KRAS G12V (2-169) GTP/RAF1 RBD-3xFLAG (51-131); (iv) 50 nM Avi-KRAS WT (2-169) GTP/RAF1 RBD-3xFLAG (51-131); and (v) 75 nM 3xFLAG-RAF1 RBD (51-131)-Avi. The assay buffer included: 50 mM Tris pH 7.5 (Invitrogen, 15567-027), 100 mM NaCl (Sigma, S5150-IL), 5 mM MgCl2 (Sigma, 63069), 0.1% BSA (Sigma, A7030), 0.01% Tween 20 (Sigma, P7949), 10% DMSO (Cell Signaling, 12611). The bead buffer included: 50 mM Tris pH 7.5 (Invitrogen, 15567-027), 0.01% Tween 20 (Sigma, P7949). An assay volume of 20 μL was used in a 384 well plate-low volume format. Compound titration: 30-0.005 μM, 3x dilution series.
(§4) The HTRF assay employed the following protocol:
(§5) Compounds were dispensed in assay plate (384-well, Grenier Bio-One #784075) using Echo (model 555) with dose response settings: 200 nL final volume, titration from 30 μM as a 10-point dilution series. Proteins and HTRF reagents were mixed and dispensed onto plates, 20 μL per well, and then incubated for 1 h at room temperature, with 700 rpm shaking.
(§6) Plates were analyzed on an Envision plate reader using the following setting: Excitation 320 nm, Bandwidth 75 nm; Emission 615 nm, Bandwidth 85 nm; Gain 100%; Flashes 100; Lag 60 μs. Data was reported as percentage of activity, with DMSO as 100%. Data was plotted and analyzed using Prism 8.
(§7) The biochemical Raf1-KRAS G12D/G12V/G12C/WT-GTP disruption assay IC50 of selected compounds described herein are shown in Table 12.

[3] = target: T2, Avi-KRAS G12C (2-169) GTP/RAF1 RBD-3xFLAG (51-131) (Homo sapiens, UniProt P01116, G12C); experiment: Raf1-KRAS G12C-GTP disruption HTRF assay (Biological Example 3); assay type: binding; details: KRAS G12C, GTP-loaded
T2 construct: Avi-KRAS G12C (2-169)
Experimental: as §1, §2, §3, §4, §5, §6, §7

[4] = target: T3, Avi-KRAS G12V (2-169) GTP/RAF1 RBD-3xFLAG (51-131) (Homo sapiens, UniProt P01116, G12V); experiment: Raf1-KRAS G12V-GTP disruption HTRF assay (Biological Example 3); assay type: binding; details: KRAS G12V, GTP-loaded
T3 construct: Avi-KRAS G12V (2-169)
Experimental: as §1, §2, §3, §4, §5, §6, §7

[5] = target: T4, Avi-KRAS WT (2-169) GTP/RAF1 RBD-3xFLAG (51-131) (Homo sapiens, UniProt P01116); experiment: Raf1-KRAS WT-GTP disruption HTRF assay (Biological Example 3); assay type: binding; details: KRAS WT, GTP-loaded
T4 construct: Avi-KRAS WT (2-169)
Experimental: as §1, §2, §3, §4, §5, §6, §7

[6] = tested on: SW620 cells (KRAS G12V); experiment: Cell-based pERK HTRF assay in SW620 cell (Biological Example 4); details: Homo sapiens, SW-620, SW620 (KRAS G12V) cells
Procedure, shortened: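 This assay measures inhibition of ERK phosphorylation downstream of KRAS G12V in intact SW620 cells. Compounds are applied for 4 h over nine half-log concentrations starting at 1 μM, and pERK is quantified by HTRF.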

T2 sequence (P01116 2-169 isoform P01116-2 G12C): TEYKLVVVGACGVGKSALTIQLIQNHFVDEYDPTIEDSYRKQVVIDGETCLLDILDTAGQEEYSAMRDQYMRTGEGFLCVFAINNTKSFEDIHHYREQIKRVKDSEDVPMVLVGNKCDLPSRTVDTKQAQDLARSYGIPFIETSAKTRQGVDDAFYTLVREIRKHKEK
T1 sequence (P01116 2-169 isoform P01116-2 G12D): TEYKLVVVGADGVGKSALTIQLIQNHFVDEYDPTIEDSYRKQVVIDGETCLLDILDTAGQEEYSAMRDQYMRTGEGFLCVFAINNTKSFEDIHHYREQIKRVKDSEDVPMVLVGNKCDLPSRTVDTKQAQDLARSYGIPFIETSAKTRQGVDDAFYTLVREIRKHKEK
T3 sequence (P01116 2-169 isoform P01116-2 G12V): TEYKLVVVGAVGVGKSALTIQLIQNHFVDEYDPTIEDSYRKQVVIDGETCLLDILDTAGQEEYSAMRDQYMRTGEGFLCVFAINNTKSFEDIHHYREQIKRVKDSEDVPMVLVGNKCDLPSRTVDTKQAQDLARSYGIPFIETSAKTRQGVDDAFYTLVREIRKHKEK
T4 sequence (P01116 2-169 isoform P01116-2): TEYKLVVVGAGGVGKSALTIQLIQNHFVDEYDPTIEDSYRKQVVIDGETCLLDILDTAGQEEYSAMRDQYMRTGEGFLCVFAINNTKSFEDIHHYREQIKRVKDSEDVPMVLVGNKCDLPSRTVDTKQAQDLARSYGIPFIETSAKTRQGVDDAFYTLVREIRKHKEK

SMILES: CCN(c1nc(OC[C@@]23CCCN2C[C@H](F)C3)nc2c(F)c(-c3ccc(F)c4sc(N)c(C#N)c34)c(C(F)(F)F)cc12)[C@H]1C[C@H](COC)N(C(=O)[C@H]2C[C@H]2F)C1 (atropisomer, axis not shown) [Compound 847]
- IC50 [1]: < 100 nM
- IC50 [2]: 100 to 1000 nM
- IC50 [3]: 100 to 1000 nM
- IC50 [4]: 100 to 1000 nM
- IC50 [5]: 100 to 1000 nM
- IC50 [6]: < 100 nM

SMILES: CCN(c1nc(OC[C@@]23CCCN2C[C@H](F)C3)nc2c(F)c(-c3ccc(F)c4sc(N)c(C#N)c34)c(C(F)(F)F)cc12)[C@H]1C[C@H](COC)N(C(=O)[C@@H]2C[C@H]2F)C1 (atropisomer, axis not shown) [Compound 848]
- IC50 [1]: < 100 nM
- IC50 [2]: 100 to 1000 nM
- IC50 [3]: 100 to 1000 nM
- IC50 [4]: 100 to 1000 nM
- IC50 [5]: 100 to 1000 nM
- IC50 [6]: < 100 nM

SMILES: CCN(c1nc(OC[C@@]23CCCN2C[C@H](F)C3)nc2c(F)c(-c3ccc(F)c4sc(N)c(C#N)c34)c(C(F)(F)F)cc12)[C@H]1CCN(C(=O)OCC(F)(F)F)C1 (atropisomer, axis not shown) [Compound 849]
- IC50 [1]: < 100 nM
- IC50 [2]: 100 to 1000 nM
- IC50 [3]: 100 to 1000 nM
- IC50 [4]: 100 to 1000 nM
- IC50 [5]: 100 to 1000 nM
- IC50 [6]: < 100 nM

SMILES: CCN(c1nc(OC[C@@]23CCCN2C[C@H](F)C3)nc2c(F)c(-c3ccc(F)c4sc(N)c(C#N)c34)c(C(F)(F)F)cc12)[C@H]1CCN(C(=O)O[C@H](C)C(F)(F)F)C1 (atropisomer, axis not shown) [Compound 850]
- IC50 [1]: < 100 nM
- IC50 [2]: 100 to 1000 nM
- IC50 [3]: 100 to 1000 nM
- IC50 [4]: 1000 to 10000 nM
- IC50 [5]: 1000 to 10000 nM
- IC50 [6]: < 100 nM

SMILES: CCN(c1nc(OC[C@@]23CCCN2C[C@H](F)C3)nc2c(F)c(-c3ccc(F)c4sc(N)c(C#N)c34)c(C(F)(F)F)cc12)[C@H]1CCN(C(=O)N2CC3(CCO3)C2)C1 (atropisomer, axis not shown) [Compound 851]
- IC50 [1]: < 100 nM
- IC50 [2]: 100 to 1000 nM
- IC50 [3]: 100 to 1000 nM
- IC50 [4]: 100 to 1000 nM
- IC50 [5]: 100 to 1000 nM
- IC50 [6]: < 100 nM

SMILES: CCN(c1nc(OC[C@@]23CCCN2C[C@H](F)C3)nc2c(F)c(-c3ccc(F)c4sc(N)c(C#N)c34)c(C(F)(F)F)cc12)[C@H]1C[C@H](COC)N(C(=O)[C@@H]2CCO2)C1 (atropisomer, axis not shown) [Compound 853]
- IC50 [1]: < 100 nM
- IC50 [2]: 100 to 1000 nM
- IC50 [3]: 100 to 1000 nM
- IC50 [4]: 100 to 1000 nM
- IC50 [5]: 100 to 1000 nM
- IC50 [6]: < 100 nM

SMILES: CCN(c1nc(OC[C@@]23CCCN2C[C@H](F)C3)nc2c(F)c(-c3ccc(F)c4sc(N)c(C#N)c34)c(C(F)(F)F)cc12)[C@H]1C[C@H](COC)N(C(=O)[C@@H]2CC2(F)F)C1 (atropisomer, axis not shown) [Compound 854]
- IC50 [1]: < 100 nM
- IC50 [2]: 100 to 1000 nM
- IC50 [3]: 100 to 1000 nM
- IC50 [4]: 100 to 1000 nM
- IC50 [5]: 100 to 1000 nM
- IC50 [6]: < 100 nM

SMILES: CN(Cc1cocn1)c1nc(OC[C@@]23CCCN2C[C@H](F)C3)nc2c(F)c(-c3ccc(F)c4sc(N)c(C#N)c34)c(C(F)(F)F)cc12 (atropisomer, axis not shown) [Compound 855]
- IC50 [1]: < 100 nM
- IC50 [2]: 100 to 1000 nM
- IC50 [3]: 100 to 1000 nM
- IC50 [4]: 100 to 1000 nM
- IC50 [5]: 100 to 1000 nM
- IC50 [6]: < 100 nM

SMILES: CN(Cc1ccon1)c1nc(OC[C@@]23CCCN2C[C@H](F)C3)nc2c(F)c(-c3ccc(F)c4sc(N)c(C#N)c34)c(C(F)(F)F)cc12 (atropisomer, axis not shown) [Compound 856]
- IC50 [1]: < 100 nM
- IC50 [2]: 100 to 1000 nM
- IC50 [3]: 1000 to 10000 nM
- IC50 [4]: 100 to 1000 nM
- IC50 [5]: 1000 to 10000 nM
- IC50 [6]: < 100 nM

SMILES: CCN(c1nc(OC[C@@]23CCCN2C[C@H](F)C3)nc2c(F)c(-c3ccc(F)c4sc(N)c(C#N)c34)c(C(F)(F)F)cc12)[C@H]1CCN(C(=O)C(CF)CF)C1 (atropisomer, axis not shown) [Compound 857]
- IC50 [1]: < 100 nM
- IC50 [2]: 100 to 1000 nM
- IC50 [3]: 100 to 1000 nM
- IC50 [4]: 100 to 1000 nM
- IC50 [5]: 100 to 1000 nM
- IC50 [6]: < 100 nM
